Assay results as given in PMC7318222, “A Family of Water‐Immiscible, Dipolar Aprotic, Diamide Solvents from Succinic Acid” (Chemsuschem, 2020).

Each compound was assayed against T1, AhR (Homo sapiens, UniProt P35869) (assay: AhR CALUX reporter gene assay). Conditions: PC10, 24 h exposure.
T1 construct: expression construct for the full-length human receptor under investigation; expressed in transfected cells; host or cells: human U2-OS cells (ATCC HTB-96), stably transfected
T1 sequence (P35869 11-848): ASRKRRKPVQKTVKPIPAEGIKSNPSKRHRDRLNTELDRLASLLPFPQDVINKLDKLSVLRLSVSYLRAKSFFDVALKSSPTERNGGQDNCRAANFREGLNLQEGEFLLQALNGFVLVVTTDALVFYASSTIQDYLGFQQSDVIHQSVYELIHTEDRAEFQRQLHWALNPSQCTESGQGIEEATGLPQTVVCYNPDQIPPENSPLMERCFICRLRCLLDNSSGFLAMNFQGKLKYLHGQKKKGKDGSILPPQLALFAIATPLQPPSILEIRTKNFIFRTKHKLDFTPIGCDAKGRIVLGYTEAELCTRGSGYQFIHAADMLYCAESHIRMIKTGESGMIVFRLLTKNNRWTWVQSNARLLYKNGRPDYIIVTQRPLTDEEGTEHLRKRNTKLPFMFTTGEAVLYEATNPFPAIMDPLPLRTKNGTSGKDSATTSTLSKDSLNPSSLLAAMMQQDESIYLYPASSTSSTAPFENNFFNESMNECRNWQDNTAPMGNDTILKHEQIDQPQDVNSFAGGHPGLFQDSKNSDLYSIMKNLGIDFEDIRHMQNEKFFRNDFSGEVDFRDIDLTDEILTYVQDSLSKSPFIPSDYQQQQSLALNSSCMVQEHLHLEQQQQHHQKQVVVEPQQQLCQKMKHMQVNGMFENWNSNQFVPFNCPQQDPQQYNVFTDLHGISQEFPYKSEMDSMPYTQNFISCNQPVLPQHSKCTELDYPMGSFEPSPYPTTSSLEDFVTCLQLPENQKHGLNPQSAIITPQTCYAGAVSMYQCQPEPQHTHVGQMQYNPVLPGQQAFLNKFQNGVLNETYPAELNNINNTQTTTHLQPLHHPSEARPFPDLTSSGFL
Type: cell-based
Design: key: –: no effect observed up to the highest test concentration
Text: 2-methylimidazole 99.0%, zinc(II) nitrate hexahydrate ≥99.0%, para-cymene 99.0%, 1,4-dioxane 99.8% (anhydrous), 4-nitroaniline ≥99.0%, 1-octanol ≥99.0%, diglyme ≥99.0%, DMSO-d6 (99.8% D) and chloroform-d (99.8% D) were purchased from Sigma-Aldrich. Toluene ≥99.0%, hexane ≥99.5%, DCM ≥99.5%, chloroform ≥99.5%, DMSO ≥99.0% were purchased from VWR. N,N-diethyl-4-nitroaniline ≥98.0% was purchased from Alfa Aeser. Cyrene was supplied by Circa group. N-butylpyrrolidinone was supplied by Eastman chemicals. N,N-dimethylformamide 99.9% and N,N-dimethylacetamide 99.9% were purchased from Fischer. The flakes of Ultrason® E3020 P Polyarylethersulfone of 55,000 Da were obtained from INGE.BASF, Germany. The CALUX cell lines have been described previously.[1] They are based on human U2-OS cells (ATCC, HTB-96) stably transfected with an expression construct for the full-length human receptor under investigation, and a reporter construct consisting of multimerized responsive elements for the cognate receptor coupled to a minimal promoter element (TATA) and a luciferase gene. Cells were maintained as described previously,[2] using cell culture media and supplements from Fisher Scientific as described in the experimental procedures section. […]
In vitro reporter gene assays
The automated CALUX assays were carried out similarly as described earlier,[12] with some adaptations. In brief, the assay was performed in CO2 independent medium (Fisher Scientific, […]
supplement (Fisher Scientific, 11574466), 10 U/mL penicillin and 10 µg/mL streptomycin. A cell suspension in assay medium was made of 1 × 10^5cells/mL, and white 384-wells plates were seeded with 30 µl cell suspension/well. After 24 h, exposure medium was prepared. A dilution series in 0.5log unit increments of each test compound (in DMSO) was added to a 96-wells plate containing assay medium (2% v/v). Of this exposure mixture, 30 µl was added to the assay plates containing the CALUX cells, resulting in a final DMSO concentration of 1%. Additionally, DMSO blanks and a full dose response curve of the relevant reference compound were included on each plate. All samples were tested in triplicate. The preparation of the compound dilution series as well as the exposure of the cells were performed on a Hamilton StarLET liquid handling robot coupled to a Cytomat incubator.
Directly after exposure, plates were sealed with non-breathing plate seals (Plate sealer, easy seal transparent; Greiner-Bio-One, 676001). After 24 h the exposure medium was removed using an EL406 washer-dispenser (BioTek) and 10 µl/well triton lysisbuffer was added by the EL406.
Subsequently, the luciferase signal was measured in a luminometer (InfinitePro coupled to a Connect Stacker, both TECAN). In order to be able to detect receptor antagonism, several assays were also performed in antagonistic mode. […]
The luminometer data was analysed as follows; the average of the triplicate wells was determined, and the average blank (DMSO) value was subtracted. […] For antagonist- and cytotoxicity experiments, PC20 values were determined instead, which was defined as the concentration where the test compound causes a 20% decrease in the basal signal, which was […]
curve, the signal induction above background (DMSO) was determined, and the concentration where the compound elicited a 1.5-fold increase above background was used as LEC.

Compound | LEC AhR
CCCCN(CC)C(=O)CCC(=O)N(CC)CCCC [EBSA, N,N′‐diethyl‐N,N′‐dibutylsuccindiamide] | –
CCCCN(C)C(=O)CCC(=O)N(C)CCCC [MBSA, N,N′‐dimethyl‐N,N′‐dibutylsuccindiamide] | –
CCCCN(CCCC)C(=O)CCC(=O)N(CCCC)CCCC [TBSA, N,N,N′,N′‐tetrabutylsuccindiamide] | –

Second part, the compound after the results:

LEC AhR | Compound
– | CCCCN1CCCC1=O [NBP, N‐Butylpyrrolidinone, reference compound]
−2.0 Log M | CN1CCCC1=O [NMP, N‐methyl‐2‐pyrrolidone, reference compound]
